Patent US20240327364A1, “THERAPEUTIC TARGETING OF GPR68 TO INDUCE FERROPTOSIS” (University Of Maryland, Baltimore, priority 2023, published 2024)
Marks after values point to notes of the source that are not given here.

Key:
zebrafish embryos = test: Acridine orange stain of zebrafish embryos (cell death); conditions: in vivo
DLK = biological target: T1, DLK (Homo sapiens, UniProt Q12852); test: KinomeScan; format: binding; conditions: read-out: % Control
T1 construct: purchased DiscoveRx (Fremont, CA), KinomeScan service

PAK7 = biological target: T2, PAK7 (Homo sapiens, UniProt Q9P286); test: KinomeScan; format: binding; conditions: read-out: % Control
T2 construct: purchased DiscoveRx

KIT(V559D) = biological target: T3, KIT(V559D) (Homo sapiens, UniProt P10721, V559D); test: KinomeScan; format: binding; conditions: read-out: % Control
T3 construct: purchased DiscoveRx
T3 sequence (P10721 26-976 V559D): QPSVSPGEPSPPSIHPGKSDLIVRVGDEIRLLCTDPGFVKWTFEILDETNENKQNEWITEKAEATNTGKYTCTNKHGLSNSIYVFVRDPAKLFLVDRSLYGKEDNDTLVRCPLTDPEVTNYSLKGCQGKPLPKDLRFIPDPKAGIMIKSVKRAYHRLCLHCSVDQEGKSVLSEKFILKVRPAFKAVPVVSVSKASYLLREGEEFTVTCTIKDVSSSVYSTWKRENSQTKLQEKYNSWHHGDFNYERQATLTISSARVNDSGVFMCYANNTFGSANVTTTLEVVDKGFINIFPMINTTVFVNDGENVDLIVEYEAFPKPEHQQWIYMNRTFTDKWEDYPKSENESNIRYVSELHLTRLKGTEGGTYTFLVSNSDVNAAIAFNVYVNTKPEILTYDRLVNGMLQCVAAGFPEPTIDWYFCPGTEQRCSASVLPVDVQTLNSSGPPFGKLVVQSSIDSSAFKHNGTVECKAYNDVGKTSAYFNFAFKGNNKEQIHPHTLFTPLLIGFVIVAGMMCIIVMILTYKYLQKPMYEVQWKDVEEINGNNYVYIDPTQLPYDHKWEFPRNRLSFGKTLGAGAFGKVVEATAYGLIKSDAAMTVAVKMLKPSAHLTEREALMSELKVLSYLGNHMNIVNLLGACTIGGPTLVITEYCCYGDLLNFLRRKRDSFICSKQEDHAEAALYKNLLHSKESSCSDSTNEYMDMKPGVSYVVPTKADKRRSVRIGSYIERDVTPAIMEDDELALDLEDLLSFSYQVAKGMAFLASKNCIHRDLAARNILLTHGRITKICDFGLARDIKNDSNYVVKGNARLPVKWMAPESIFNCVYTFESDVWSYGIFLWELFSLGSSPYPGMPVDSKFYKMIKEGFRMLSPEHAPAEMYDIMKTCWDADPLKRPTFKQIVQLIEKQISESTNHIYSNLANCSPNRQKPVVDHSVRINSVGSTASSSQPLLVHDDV

EGFR(L858R, T790M) = biological target: T4, EGFR(L858R, T790M) (Homo sapiens, UniProt P00533, L858R/T790M); test: KinomeScan; format: binding; conditions: read-out: % Control
T4 construct: purchased DiscoveRx (Fremont, CA), KinomeScan service

MET(Y1235D) = biological target: T5, MET(Y1235D) (Homo sapiens, UniProt P08581, Y1235D); test: KinomeScan; format: binding; conditions: read-out: % Control
T5 construct: purchased DiscoveRx

NPBW1 = biological target: T6, NPBW1 (Homo sapiens, UniProt P48145); test: GPCR Profiler; format: cell-based
T6 construct: host or cells: Chem-1 cells expressing Gα15
T6 sequence (P48145 whole entry): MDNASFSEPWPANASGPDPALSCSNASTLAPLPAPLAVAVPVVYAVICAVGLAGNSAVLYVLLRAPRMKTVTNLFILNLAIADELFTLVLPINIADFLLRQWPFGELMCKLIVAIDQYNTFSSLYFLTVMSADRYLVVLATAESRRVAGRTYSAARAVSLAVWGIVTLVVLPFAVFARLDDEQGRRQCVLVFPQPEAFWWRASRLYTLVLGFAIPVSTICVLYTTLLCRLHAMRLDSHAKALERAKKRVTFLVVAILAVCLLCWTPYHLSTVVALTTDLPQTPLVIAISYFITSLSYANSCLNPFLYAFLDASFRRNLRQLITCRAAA

TXK = biological target: T7, TXK (Homo sapiens, UniProt P42681); test: KinomeScan; format: binding; conditions: read-out: % Control
T7 construct: purchased DiscoveRx
T7 sequence (P42681 whole entry): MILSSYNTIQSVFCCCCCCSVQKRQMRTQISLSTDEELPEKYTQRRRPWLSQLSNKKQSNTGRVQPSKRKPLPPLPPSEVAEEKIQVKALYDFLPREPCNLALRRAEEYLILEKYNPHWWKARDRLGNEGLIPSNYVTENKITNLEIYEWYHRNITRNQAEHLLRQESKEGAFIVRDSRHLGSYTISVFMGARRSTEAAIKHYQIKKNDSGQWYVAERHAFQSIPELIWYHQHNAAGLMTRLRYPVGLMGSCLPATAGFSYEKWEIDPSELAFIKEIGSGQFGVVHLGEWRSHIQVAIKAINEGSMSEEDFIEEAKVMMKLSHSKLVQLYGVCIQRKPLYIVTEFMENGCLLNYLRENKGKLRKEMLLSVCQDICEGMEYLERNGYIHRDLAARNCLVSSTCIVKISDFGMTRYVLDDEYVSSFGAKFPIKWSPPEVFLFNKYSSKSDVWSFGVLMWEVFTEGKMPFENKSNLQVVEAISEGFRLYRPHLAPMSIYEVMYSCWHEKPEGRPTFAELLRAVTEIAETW

[1] = biological target: T8, RSK1(Kin.Dom.2-C-terminal) (Homo sapiens, UniProt Q15418); test: KinomeScan; format: binding; conditions: read-out: % Control
T8 construct: RSK1(Kin.Dom.2-C-terminal); purchased DiscoveRx (Fremont, CA)

LRRK2(G2019S) = biological target: T9, LRRK2(G2019S) (Homo sapiens, UniProt Q5S007, G2019S); test: KinomeScan; format: binding; conditions: read-out: % Control
T9 construct: purchased DiscoveRx

CSNK2A2 = CSNK2A2 (Homo sapiens, UniProt P19784); test: KinomeScan; format: binding; conditions: read-out: % Control
CSNK2A2, sequence (P19784 whole entry): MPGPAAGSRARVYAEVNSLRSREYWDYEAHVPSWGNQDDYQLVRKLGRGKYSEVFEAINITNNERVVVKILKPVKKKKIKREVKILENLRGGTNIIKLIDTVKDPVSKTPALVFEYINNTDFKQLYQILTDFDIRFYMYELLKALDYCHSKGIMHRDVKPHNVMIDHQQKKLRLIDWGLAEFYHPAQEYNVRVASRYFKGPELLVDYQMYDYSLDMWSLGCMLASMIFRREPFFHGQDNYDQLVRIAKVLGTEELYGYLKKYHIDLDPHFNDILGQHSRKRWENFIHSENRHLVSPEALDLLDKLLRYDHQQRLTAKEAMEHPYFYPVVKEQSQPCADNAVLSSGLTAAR

PRKD2 = biological target: T10, PRKD2 (Homo sapiens, UniProt Q9BZL6); test: KinomeScan; format: binding; conditions: read-out: % Control
T10 construct: purchased DiscoveRx (Fremont, CA)

MST2 = biological target: T11, MST2 (Homo sapiens, UniProt Q13188); test: KinomeScan; format: binding; conditions: read-out: % Control
T11 construct: purchased DiscoveRx

H3 = biological target: T12, H3 (Homo sapiens, UniProt Q9Y5N1); test: GPCR Profiler; format: cell-based
T12 construct: host or cells: Chem-1 cells with promiscuous Gα15
T12 sequence (Q9Y5N1 whole entry): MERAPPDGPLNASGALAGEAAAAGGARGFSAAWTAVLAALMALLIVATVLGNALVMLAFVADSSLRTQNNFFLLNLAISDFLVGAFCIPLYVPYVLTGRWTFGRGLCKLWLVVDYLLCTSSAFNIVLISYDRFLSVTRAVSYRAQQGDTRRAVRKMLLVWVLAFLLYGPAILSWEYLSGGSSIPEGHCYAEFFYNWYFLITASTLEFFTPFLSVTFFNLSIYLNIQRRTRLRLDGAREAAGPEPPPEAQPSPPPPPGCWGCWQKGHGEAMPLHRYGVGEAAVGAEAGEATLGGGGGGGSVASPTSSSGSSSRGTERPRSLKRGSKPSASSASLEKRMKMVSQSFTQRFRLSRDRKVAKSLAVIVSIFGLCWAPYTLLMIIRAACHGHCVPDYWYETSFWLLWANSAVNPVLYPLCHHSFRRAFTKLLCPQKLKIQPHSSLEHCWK

CLK4 = CLK4 (Homo sapiens, UniProt Q9HAZ1); test: KinomeScan; format: binding; conditions: read-out: % Control
CLK4, sequence (Q9HAZ1 whole entry): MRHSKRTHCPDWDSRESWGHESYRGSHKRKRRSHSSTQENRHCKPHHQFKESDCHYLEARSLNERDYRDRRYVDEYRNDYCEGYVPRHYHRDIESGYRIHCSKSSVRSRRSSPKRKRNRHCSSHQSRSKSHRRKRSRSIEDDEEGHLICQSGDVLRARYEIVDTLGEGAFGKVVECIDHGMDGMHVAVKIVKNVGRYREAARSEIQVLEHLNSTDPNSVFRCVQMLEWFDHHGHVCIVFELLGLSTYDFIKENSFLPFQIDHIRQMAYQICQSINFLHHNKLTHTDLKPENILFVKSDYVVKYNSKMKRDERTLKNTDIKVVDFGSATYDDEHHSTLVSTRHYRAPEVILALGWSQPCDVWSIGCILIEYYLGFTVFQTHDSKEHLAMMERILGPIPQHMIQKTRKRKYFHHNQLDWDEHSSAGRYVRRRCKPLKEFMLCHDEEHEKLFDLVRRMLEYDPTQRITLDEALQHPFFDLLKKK

NEK3 = biological target: T13, NEK3 (Homo sapiens, UniProt P51956); test: KinomeScan; format: binding; conditions: read-out: % Control
T13 construct: purchased DiscoveRx

ERK4 = biological target: T14, ERK4 (Homo sapiens, UniProt P31152); test: KinomeScan; format: binding; conditions: read-out: % Control
T14 construct: purchased DiscoveRx (Fremont, CA)

EPHA2 = biological target: T15, EPHA2 (Homo sapiens, UniProt P29317); test: KinomeScan; format: binding; conditions: read-out: % Control
T15 construct: purchased DiscoveRx (Fremont, CA)

CCR10 = biological target: T16, CCR10 (Homo sapiens, UniProt P46092); test: GPCR Profiler; format: cell-based
T16 construct: host or cells: Chem-1 cells with Gα15
T16 sequence (P46092 whole entry): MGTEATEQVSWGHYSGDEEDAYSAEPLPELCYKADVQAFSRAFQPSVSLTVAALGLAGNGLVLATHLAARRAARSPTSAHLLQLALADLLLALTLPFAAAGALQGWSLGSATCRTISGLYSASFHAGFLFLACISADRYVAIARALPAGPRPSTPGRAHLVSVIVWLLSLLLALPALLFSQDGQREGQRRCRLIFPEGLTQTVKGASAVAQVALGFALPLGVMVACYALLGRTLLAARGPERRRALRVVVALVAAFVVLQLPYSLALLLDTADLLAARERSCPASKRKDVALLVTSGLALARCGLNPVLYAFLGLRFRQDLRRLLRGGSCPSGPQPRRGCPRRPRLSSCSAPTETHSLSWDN

GPR14 = biological target: T17, GPR14 (Homo sapiens, UniProt Q9UKP6); test: GPCR Profiler; format: cell-based; conditions: 12.5 uM
T17 construct: host or cells: Chem-1 cells expressing Gα15

CCR7 = biological target: T18, CCR7 (Homo sapiens, UniProt P32248); test: GPCR Profiler; format: cell-based
T18 construct: host or cells: Chem-1 cells with Gα15
T18 sequence (P32248 25-378, species assumed): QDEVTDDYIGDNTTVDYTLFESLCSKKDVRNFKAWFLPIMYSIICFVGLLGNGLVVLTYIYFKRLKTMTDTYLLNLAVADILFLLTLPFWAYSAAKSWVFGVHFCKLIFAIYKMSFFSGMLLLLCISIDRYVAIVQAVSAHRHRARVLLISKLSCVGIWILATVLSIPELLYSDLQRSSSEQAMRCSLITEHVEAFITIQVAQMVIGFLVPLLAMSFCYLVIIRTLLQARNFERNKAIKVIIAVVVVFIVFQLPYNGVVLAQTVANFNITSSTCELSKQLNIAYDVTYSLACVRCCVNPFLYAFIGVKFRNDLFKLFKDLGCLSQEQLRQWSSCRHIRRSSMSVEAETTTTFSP

P2Y2 = biological target: T19, P2Y2 (Homo sapiens, UniProt P41231); test: GPCR Profiler; format: cell-based
T19 construct: host or cells: Chem-1 cells expressing Gα15
T19 sequence (P41231 whole entry, species assumed): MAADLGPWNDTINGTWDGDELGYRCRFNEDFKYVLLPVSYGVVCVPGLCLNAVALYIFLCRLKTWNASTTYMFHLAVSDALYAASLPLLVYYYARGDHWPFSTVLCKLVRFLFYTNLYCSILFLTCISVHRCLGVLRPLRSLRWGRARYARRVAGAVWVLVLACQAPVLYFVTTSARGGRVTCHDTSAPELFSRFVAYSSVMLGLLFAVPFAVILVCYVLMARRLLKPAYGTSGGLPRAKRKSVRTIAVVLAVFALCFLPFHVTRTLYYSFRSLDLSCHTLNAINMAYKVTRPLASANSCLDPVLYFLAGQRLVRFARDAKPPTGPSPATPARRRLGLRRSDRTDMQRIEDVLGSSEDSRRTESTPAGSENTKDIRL

MAP4K5 = biological target: T20, MAP4K5 (Homo sapiens, UniProt Q9Y4K4); test: KinomeScan; format: binding; conditions: read-out: % Control
T20 construct: purchased DiscoveRx (Fremont, CA)

PLK3 = biological target: T21, PLK3 (Homo sapiens, UniProt Q9H4B4); test: KinomeScan; format: binding; conditions: read-out: % Control
T21 construct: purchased DiscoveRx (Fremont, CA)

HIPK4 = biological target: T22, HIPK4 (Homo sapiens, UniProt Q8NE63); test: KinomeScan; format: binding; conditions: read-out: % Control
T22 construct: purchased DiscoveRx (Fremont, CA)

158 GPCRs = test: GPCR profiling panel (summary); format: cell-based; conditions: 10 μM
Description: GPCR profiling assays were performed by Millipore (St. Louis, MO) using in cells expressing Gα15, a promiscuous G protein that enhances GPCR coupling to downstream Ca2+ signaling pathways. KinomeScan was conducted by DiscoveRx (Fremont, CA).
Since GPCRs represent >30% of targets for FDA-approved small molecules and are known to modulate cell migration, activity against 158 GPCRs was assessed based on their chemical structures. GPCRs (158) were tested for agonist and antagonist activity at 10 μM. […] Chemical segregation analysis of zebrafish phenotype was conducted to further identify the inhibitory activity responsible for the zebrafish phenotype. […] The identities of the R groups in Formula A are shown below in Table 5.
To identify the target of OGM1, the molecule was profiled for binding in a panel of 442 kinases (KinomeScan™, DiscoveRx™) and assessed its activity against 158 GPCRs in a single-point assay in Chem-1 cells that uses a promiscuous Gα15 protein to trigger calcium flux (see Table 9 and Table 10, below). […] Table 9. KinomeScan (DiscoverRx) profiling of OGM1.

APJ = biological target: T23, APJ (Homo sapiens, UniProt P35414); test: GPCR Profiler; format: cell-based
T23 construct: host or cells: Chem-1 cells with promiscuous Gα15
T23 sequence (P35414 whole entry, species assumed): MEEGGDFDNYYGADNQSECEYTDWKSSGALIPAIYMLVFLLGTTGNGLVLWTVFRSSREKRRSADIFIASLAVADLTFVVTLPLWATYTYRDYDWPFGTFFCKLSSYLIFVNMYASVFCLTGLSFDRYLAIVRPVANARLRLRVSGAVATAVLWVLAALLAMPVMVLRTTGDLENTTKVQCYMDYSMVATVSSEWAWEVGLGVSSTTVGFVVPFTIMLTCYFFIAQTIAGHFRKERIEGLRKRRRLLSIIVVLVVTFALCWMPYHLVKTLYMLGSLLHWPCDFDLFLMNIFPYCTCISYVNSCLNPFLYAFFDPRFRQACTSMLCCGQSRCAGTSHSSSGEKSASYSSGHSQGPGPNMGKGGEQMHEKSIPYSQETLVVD

PRKCQ = biological target: T24, PRKCQ (Homo sapiens, UniProt Q04759); test: KinomeScan; format: binding; conditions: read-out: % Control
T24 construct: purchased DiscoveRx (Fremont, CA)

STK16 = biological target: T25, STK16 (Homo sapiens, UniProt O75716); test: KinomeScan; format: binding; conditions: read-out: % Control
T25 construct: purchased DiscoveRx (Fremont, CA)

CCR9 = biological target: T26, CCR9 (Homo sapiens, UniProt P51686); test: GPCR Profiler; format: cell-based
T26 construct: host or cells: Chem-1 cells with Gα15
T26 sequence (P51686 whole entry, species assumed): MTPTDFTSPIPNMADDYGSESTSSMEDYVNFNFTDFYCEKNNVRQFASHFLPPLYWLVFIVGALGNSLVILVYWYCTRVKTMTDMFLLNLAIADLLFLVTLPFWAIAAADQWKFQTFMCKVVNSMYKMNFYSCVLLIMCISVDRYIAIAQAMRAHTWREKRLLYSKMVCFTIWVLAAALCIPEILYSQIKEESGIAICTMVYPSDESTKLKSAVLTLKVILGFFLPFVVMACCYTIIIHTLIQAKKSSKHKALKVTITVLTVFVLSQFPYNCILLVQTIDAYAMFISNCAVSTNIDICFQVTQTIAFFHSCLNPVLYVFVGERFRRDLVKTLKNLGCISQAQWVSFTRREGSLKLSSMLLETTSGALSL

CSNK1G1 = CSNK1G1 (Homo sapiens, UniProt Q9HCP0); test: KinomeScan; format: binding; conditions: read-out: % Control

CCc1ccc2c(c1)C1(NN=C(c3ccccc3)S1)C(=O)N2 (centres unmarked) [OGM2]
excess cell death (zebrafish embryos): did not induce excess cell death in zebrafish larvae

CCc1ccc2c(c1)C1(NN=C(c3cccc4ccccc34)S1)C(=O)N2 (centres unmarked) [OGM1, 5-ethyl-5′-naphthalen-1-ylspiro[1H-indole-3,2′-3H-1,3,4-thiadiazole]-2-one]
remaining binding at 10 µM (DLK): 40%
remaining binding at 10 µM (PAK7): 62%
remaining binding at 10 µM (KIT(V559D)): 71%
remaining binding at 10 µM (EGFR(L858R, T790M)): 89%
remaining binding at 10 µM (MET(Y1235D)): 100%
Antagonism (NPBW1; 10 uM): 22.8
Agonism (NPBW1; 12.5 uM): 0.5
remaining binding at 10 µM (TXK): 99%
remaining binding at 10 µM [1]: 73%
remaining binding at 10 µM (LRRK2(G2019S)): 100%
remaining binding at 10 µM (CSNK2A2): 93%
remaining binding at 10 µM (PRKD2): 87%
remaining binding at 10 µM (MST2): 69%
Antagonism (H3; 10 uM): −3.3
Agonism (H3; 12.5 uM): 0.5
remaining binding at 10 µM (CLK4): 88%
remaining binding at 10 µM (NEK3): 71%
remaining binding at 10 µM (ERK4): 93%
remaining binding at 10 µM (EPHA2): 100%
Antagonism (CCR10; 10 uM): −16.7
Agonism (CCR10; 12.5 uM): −0.2
Agonism (GPR14): 16.8*
Antagonism (CCR7; 10 uM): 4
Agonism (CCR7; 12.5 uM): 0
Antagonism (P2Y2; 10 uM): −9
Agonism (P2Y2; 12.5 uM): 0.1
remaining binding at 10 µM (MAP4K5): 100%
remaining binding at 10 µM (PLK3): 100%
remaining binding at 10 µM (HIPK4): 100%
GPCRs significantly inhibited (158 GPCRs): significantly inhibited only the lysophosphatidic acid receptor 1 (LPAR1), and extracellular proton-sensing GPR68/OGR1
Antagonism (APJ; 10 uM): 7.7
Agonism (APJ; 12.5 uM): 0.9
remaining binding at 10 µM (PRKCQ): 99%
remaining binding at 10 µM (STK16): 88%
Antagonism (CCR9; 10 uM): 0.6
Agonism (CCR9; 12.5 uM): 0.4
remaining binding at 10 µM (CSNK1G1): 82%
